US8415305B2, “Use of cyclic depsipeptides to inhibit kallikrein 7” (Novartis AG, priority 2007, dated 2013)

Target: human kallikrein 7 (hKallikrein7) (Homo sapiens, UniProt P49862)
Test: Kallikrein 7 fluorescence-quenched substrate enzymatic assay (IC50)
Type: biochemical
Method: An “inhibitor” is a cyclic depsipeptide that inhibits an enzymatic reaction with a measure IC50 of less than […], for instance 50 μM, 30 μM, 20 μM or 10 μM. Particularly preferred are cyclic depsipeptides with an IC50 of less than 30 μM for human kallikrein 7, for instance cyclic depsipeptides with an IC50 of less than 10 μM, 1 μM, 100 nM, 50 nM, 40 nM, 30 nM, 20 nM, 10 nM, or less. IC50 for human kallikrein can be measured using the fluorescence-quenched substrate Ac-Glu-Asp(EDANS)-Lys-Pro-lle-Leu-Phe^Arg-Leu-Gly-Lys(DABCYL)-Glu-NH2 (SEQ ID NO 1) (where ^ indicates the scissile bond, identified by MS analysis) which can be purchased from Biosyntan (Berlin, Germany). Enzymatic reactions are conducted in 50 mM sodium citrate buffer at pH 5.6 containing 150 mM NaCl and 0.05% (w/v) CHAPS. For the determination of IC50 values the assay is performed at room temperature in 384-well plates. All final assay volumes are 30 μl. Test compounds are dissolved in 90% (v/v) DMSO/water and diluted in water (containing 0.05% (w/v) CHAPS) to 3-times the desired assay concentration. The 11 final compound concentrations are: 0.3 nM, 1 nM, 3 nM, 10 nM, 30 nM, 100 nM, 300 nM, 1 μM, 3 μM, 10 μM and 30 μM. For each assay, 10 μl water/CHAPS (±test compound) are added per well, followed by 10 μl protease solution (diluted with 1.5× assay buffer). The protease concentration in final assay solution is 0.2 nM (according to the enzyme concentrations determined by the Bradford method). After 1 hour of incubation at room temperature, the reaction is started by addition of 10 μl substrate solution (substrate dissolved in 1.5× assay buffer, final concentration is 2 μM). The effect of the compound on the enzymatic activity is obtained from the linear progress curves and determined from two readings, the first one taken directly after the addition of substrate (t=0 min) and the second one after 1 hour (t=60 min). The IC50 value is calculated from the plot of percentage of inhibition vs. inhibitor concentration using non-linear regression analysis software (XLfit, Vers. 4.0; ID Business Solution Ltd., Guildford, Surrey, UK).
The fluorescence-quenched substrate Ac-Glu-Asp(EDANS)-Lys-Pro-lle-Leu-Phe^Arg-Leu-Gly-Lys(DABCYL)-Glu-NH2 (SEQ ID NO1) (where ^ indicates the scissile bond, identified by MS analysis) is purchased from Biosyntan (Berlin, Germany) and kept as a 5 mM stock solution in DMSO at −20° C. All other chemicals are of analytical grade. […]
For fluorescence intensity (FI) measurements an Ultra Evolution reader (TECAN, Maennedorf, Switzerland) is used. The instrument is equipped with a combination of a 350 nm (20 nm bandwidth) and a 500 nm (25 nm bandwidth) bandpath filter for fluorescence excitation and emission acquisition, respectively. […]

Sequence of human kallikrein 7 (hKallikrein7) (P49862 30-253): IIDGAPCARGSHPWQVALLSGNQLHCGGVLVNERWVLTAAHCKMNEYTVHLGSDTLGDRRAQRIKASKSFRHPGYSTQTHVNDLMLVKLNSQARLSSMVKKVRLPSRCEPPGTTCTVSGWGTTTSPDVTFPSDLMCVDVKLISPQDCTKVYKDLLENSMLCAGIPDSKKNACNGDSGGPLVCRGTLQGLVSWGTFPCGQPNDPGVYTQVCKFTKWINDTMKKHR

SMILES | IC50 [nM]
CCC(C)[C@@H]1NC(=O)[C@H](Cc2ccc(O)cc2)N(C)C(=O)[C@H](C(C)CC)N2C(=O)C(CC[C@@H]2O)NC(=O)[C@H](CC(C)C)NC(=O)[C@H](NC(=O)[C@H](CCC(N)=O)NC(=O)C(C)C)[C@@H](C)OC1=O (stereo partly shown) [formula (II)] | 1
CCC(C)C(=O)N[C@@H](CCC(N)=O)C(=O)NC1C(=O)N[C@@H](CC(C)C)C(=O)NC2CC[C@H](O)N(C2=O)[C@@H](C(C)CC)C(=O)N(C)[C@@H](Cc2ccc(O)cc2)C(=O)N[C@@H](C(C)CC)C(=O)O[C@@H]1C (stereo partly shown) [formula (III)] | 0.4
CCC(C)C(=O)N[C@@H](CCC(N)=O)C(=O)N[C@H]1C(=O)N[C@@H](CC(C)C)C(=O)N[C@H]2CC=CN(C2=O)[C@@H](C(C)CC)C(=O)N(C)[C@@H](Cc2ccc(O)cc2)C(=O)N[C@@H](C(C)CC)C(=O)O[C@@H]1C (stereo partly shown) [formula (IV)] | 5
CCC(C)[C@@H]1NC(=O)[C@H](Cc2ccc(O)cc2)N(C)C(=O)[C@H](C(C)CC)N2C=CC[C@H](NC(=O)[C@H](CC(C)C)NC(=O)[C@H](NC(=O)[C@H](CCC(N)=O)NC(=O)C(C)C)[C@@H](C)OC1=O)C2=O (stereo partly shown) [formula (V)] | 6
